According to US7488466B2, “Preparation for determining pyrimidine metabolic capacity” (Otsuka Pharmaceutical Co., Ltd., priority 2002, dated 2009):

Columns and labels:
[1] = test system: dihydropyrimidine dehydrogenase (DPD); settings: Cancer Research 46, 1094-1101, 1986; cited from earlier work
[2] = target: T1, dihydropyrimidine dehydrogenase (DPD) (Canis lupus familiaris, UniProt A0A8I3P1X8); experiment: 13CO2 excretion in expired air after intravenous injection of 2-13C-labeled uracil preparation (Example 1); type: in vivo; settings: FIG. 2
T1 construct: Fasted beagle dogs were used as experimental animals; from tissue; host or cells: whole living beagle dogs (in vivo)
T1 sequence (A0A8I3P1X8 1-1026): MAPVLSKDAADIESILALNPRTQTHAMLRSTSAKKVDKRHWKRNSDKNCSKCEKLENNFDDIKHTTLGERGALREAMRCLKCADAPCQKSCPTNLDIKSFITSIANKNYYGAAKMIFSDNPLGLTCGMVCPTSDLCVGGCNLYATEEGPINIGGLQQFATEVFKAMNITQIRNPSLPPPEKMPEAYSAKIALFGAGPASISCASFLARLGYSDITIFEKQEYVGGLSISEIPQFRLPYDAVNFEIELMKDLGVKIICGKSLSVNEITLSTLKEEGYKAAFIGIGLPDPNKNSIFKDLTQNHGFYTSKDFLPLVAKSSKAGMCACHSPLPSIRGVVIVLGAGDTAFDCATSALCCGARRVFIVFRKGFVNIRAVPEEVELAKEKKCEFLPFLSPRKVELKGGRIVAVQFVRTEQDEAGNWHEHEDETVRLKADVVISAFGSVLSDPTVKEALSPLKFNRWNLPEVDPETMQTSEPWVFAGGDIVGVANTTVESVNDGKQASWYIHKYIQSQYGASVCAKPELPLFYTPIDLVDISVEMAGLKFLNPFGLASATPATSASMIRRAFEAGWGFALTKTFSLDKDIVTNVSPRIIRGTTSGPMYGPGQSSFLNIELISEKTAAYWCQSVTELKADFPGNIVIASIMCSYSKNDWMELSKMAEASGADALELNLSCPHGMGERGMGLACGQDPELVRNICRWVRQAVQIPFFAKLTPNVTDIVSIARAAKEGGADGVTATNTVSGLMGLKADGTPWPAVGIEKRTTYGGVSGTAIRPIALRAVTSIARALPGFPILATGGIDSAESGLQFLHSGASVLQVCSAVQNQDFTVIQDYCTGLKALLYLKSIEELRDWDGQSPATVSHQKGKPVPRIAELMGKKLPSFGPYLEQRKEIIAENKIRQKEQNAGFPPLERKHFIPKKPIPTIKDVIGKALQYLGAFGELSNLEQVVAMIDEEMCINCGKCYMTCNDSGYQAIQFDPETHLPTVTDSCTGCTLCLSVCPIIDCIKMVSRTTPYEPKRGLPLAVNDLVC
Protocol: Uracil having […] carbon at the 2-position (2-^13C-labeled uracil) was used as an isotope-labeled pyrimidine compound. A preparation for determining the pyrimidine metabolic capacity in the form of an intravenous injection comprising the 2-^13C-labeled uracil as an active ingredient was prepared and tested for usefulness for determining pyrimidine metabolic capacity.
Uracil-2-^13C (Cambridge Isotope Laboratory) (300 mg) was dissolved in 24 ml of 0.1N NaOH/saline solution (measured out from 200 ml of 0.1N NaOH/saline solution prepared by diluting 2 ml of 10N sodium hydroxide solution with physiological saline), to give a preparation for determining the pyrimidine metabolic capacity in the form of an intravenous injection (containing 50 mg of uracil-2-^13C per 4 ml of the injection).
(E)-5-(2-bromovinyl)-uracil (250 mg) and gum arabic (2.25 g) were mixed together, and the mixture was kneaded while adding a slight amount of water, to prepare 45 ml of a suspension (containing 83.3 mg of (E)-5-(2-bromovinyl)-uracil per 15 ml of the suspension).
Fasted beagle dogs were used as experimental animals. […] The concentration of ^13C-labeled carbon dioxide excreted in the collected expired air was measured using a GC-MS analyzer (ABCA-G, Europa Scientific). […]

[3] = target: T1, dihydropyrimidine dehydrogenase (DPD); experiment: 13CO2 excretion in expired air after oral administration of 2-13C-labeled uracil preparation (Example 2); type: in vivo; settings: FIG. 3
Protocol: A preparation for determining the pyrimidine metabolic capacity in an oral form was prepared using the same 2-^13C-labeled uracil as used in Example 1 as an active ingredient, and tested for usefulness for measuring pyrimidine metabolic capacity.
2-^13C-labeled uracil (Cambridge Isotope Laboratory) (300 mg) was dissolved in 24 ml of 0.1N NaOH/saline solution (measured out from 200 ml of 0.1N NaOH/saline solution prepared by diluting 2 ml of 10N sodium hydroxide solution with physiological saline). Then, water was added to give 60 ml of a preparation for determining pyrimidine metabolic capacity in the form of an oral solution (containing 50 mg of 2-^13C-labeled uracil per 10 ml of the oral solution).
Fasted beagle dogs were used as experimental animals. In Group 1 (n=3), the preparation prepared above in (1) was orally administered (50 mg/10 ml/body) (test group). […] The concentration of ^13C-labeled carbon dioxide excreted in the expired air was measured in the same manner as in Example 1, using a GC-MS analyzer (ABCA-G, Europa Scientific). […]

[4] = Dose dependence of 13CO2 concentration in expired air after oral 2-13C-labeled uracil (Example 3); type: in vivo, beagle dogs; settings: dose of 10 to 80 μmol/kg body weight, FIGS. 5 and 6
Protocol: In 50 ml portions of 0.05N sodium hydroxide, 56.5 mg, 113.1 mg, 226.2 mg, and 452.3 mg of 2-^13C-labeled uracil (Cambridge Isotope Laboratory) were dissolved separately, to prepare solutions with concentrations of 10 μmol/ml, 20 μmol/ml, 40 μmol/ml, and 80 μmol/ml, respectively. The solutions were forcibly administered orally to fasted male beagle dogs (n=3) using oral tubes for dogs, in an amount of 1 ml/kg body weight (dose: […]), and thereafter water was forcibly administered orally in an amount of 2 ml/kg body weight. The expired air was collected before administration, and after 15, 30, 45, 60, 75, 90, 105, 120, 135, 150, 180, 210, and 240 minutes after administration. Then, the ^13C-labeled carbon dioxide concentration in the expired air was measured, and pharmacokinetic parameters (the area under the curve (AUC) and maximum ^13C-labled carbon dioxide concentration (Cmax)) were calculated from the obtained transition curve of the ^13C-labeled carbon dioxide concentration in the expired air.

[5] = test system: pyrimidine metabolic pathway; settings: administered to the body; Cancer (Phila), 68, 499-501, 1991; cited from earlier work

## O=c1[nH]cc(/C=C/Br)c(=O)[nH]1 [(E)-5-(2-bromovinyl)-uracil]
[1]
  DPD inhibitor activity: known as a dihydropyrimidine dehydrogenase (DPD) inhibitor
[2]; DPD inhibitor 83.3 mg/body orally 1 hour before intravenous 2-13C-labeled uracil 50 mg/body, compared with test group
  excretion of 13CO2 in the expired air after DPD inhibitor pretreatment: markedly lower excretion
[3]; DPD inhibitor 83.3 mg/15 ml/body orally 1 hour before oral 2-13C-labeled uracil 50 mg/10 ml/body, compared with test group
  excretion of 13CO2 in the expired air after DPD inhibitor pretreatment: markedly reduced

## O=c1cc[nH][13c](=O)[nH]1 [2-^13C-labeled uracil]
[2]; test group, fasted beagle dogs, intravenous injection 50 mg/body, expired air 0-240 min
  metabolism and excretion in the expired air as 13CO2: metabolized and excreted in the expired air as ^13CO2
[4]
  excretion kinetics in the expired air (AUC and Cmax versus dose): has linearity
[3]; test group, fasted beagle dogs, oral 50 mg/10 ml/body, expired air 0-240 min
  metabolism and excretion in the expired air as 13CO2: metabolized and excreted in the expired air as ^13CO2

## O=c1[nH]cc(F)c(=O)[nH]1 [5-FU, 5-fluorouracil]
[5]
  share of administered 5-FU degraded in the pyrimidine metabolic pathway: about 80%
